Laboratory results published in patent publication US12054553B2, “Immunotherapeutic tumor treatment method” (Nektar Therapeutics, priority 2017, dated 2024).

Experiments:
[1] = system: B16F10 mouse melanoma tumors; assay: Immune cells in tumor microenvironment by flow cytometry, subcutaneous B16F10 melanoma; format: in vivo, mice
[2] = system: STAT5 phosphorylation in lymphocytes; assay: STAT5 phosphorylation in lymphocytes by flow cytometry after administration in mice; format: in vivo
Source text: Conventional approaches, such as those involving radiolabeling a compound, administering it in vivo, and determining its clearance, may be used to determine whether a compound proposed to be a long-acting IL-2Rβ biased agonist is “long-acting”. For the purposes herein, the long-acting nature of an IL-2Rβ biased agonist is typically determined using flow cytometry to measure STAT5 phosphorylation in lymphocytes at various time points after administration of the agonist to be evaluated in mice.

Substance: aldesleukin: clinically available IL-2 (aldesleukin), unmodified recombinant IL-2
- activated natural killer (NK) cells ([1]; 5 and 7 days after treatment initiation): increased
- ratio of CD8/Treg in the tumor ([1]; by day 7, single dose RSLAIL-2 or 5 doses aldesleukin): 18
- total and memory CD8 cells as percentage of tumor-infiltrating lymphocytes ([1]; relative to vehicle): increased as a percentage of tumor-infiltrating lymphocytes; however, these effects were transient
- percentage of Tregs (FoxP3+ subset of CD4 cells) in tumor ([1]; single dose RSLAIL-2 or 5 doses aldesleukin): modest achieving significance on day 5
- time by which STAT5 phosphorylation signal is lost [2]: around 24 hours
